Patent publication US11453689B2, “3-pyrrolidine-indole derivatives as serotonergic psychedelic agents for the treatment of CNS disorders” (Mindset Pharma Inc., priority 2020, dated 2022)
Where two headings read alike, the source gives them in different places.

What was measured:
[1] = system: head-twitch response (HTR) in male C57BL6 mice; assay: Mouse head-twitch response (HTR); format: in vivo; details: M100907 0.5 mg/kg IP before I-2 10 mg/kg SC
Description: Male, C57BL/6J mice (body weight range 20-30 g) were dosed with the appropriate dose of test article, and following a 1-minute pre-treatment time, placed in individual observation chambers. Animals were visually assessed for the incidence head twitches continuously over a 1 hr period. Head twitches were defined as a rapid jerk of the head which was not elicited by an external tactile stimulus (Come and Pickering, Psychopharmacologia, 1967, 11(1): 65-78). Each head twitch was individually counted by a trained observer, and the data expressed as the mean±SEM of 6-10 mice per group. Mice were used in a single experiment only.
The effect of various doses of exemplary compound of Formula I, I-2, on head-twitch response (HTR) in male C57BL6 mice were measured. The mice were treated with compound I-2 (0.03-10 mg/kg, SC) by SC route (N=6 mice/dose), and the total number of head twitches were recorded over a 1h period. Data is expressed as mean±SEM. The induction of head twitches elicited by 5-HT2A receptor agonists is believed to represent a behavioural proxy of their psychedelic effects.
To evaluate the involvement of 5-HT2A receptor on the HTR induced by exemplary compounds of Formula I, mice were pretreated with the selective 5-HT2AR antagonist M100907 (also known as volinanserin) prior to the administration of exemplary compounds of Formula I, for example, 1-2 (10 mg/kg SC).

[2] = tobacco use disorder, cited from earlier work
[3] = Human liver microsomes stability with NADPH
Description: (§1) The objective of this study was to estimate in vitro metabolic stability of exemplary compounds in pooled human, male rat and male mouse liver microsomes. The concentrations of exemplary compounds in reaction systems were evaluated by LC-MS/MS for estimating the stability in pooled human, male rat and male mouse liver microsomes. The in vitro intrinsic clearances of test compounds were determined as well.
(§2) A master solution in the “Incubation Plate” containing phosphate buffer, ultra-pure H2O, MgCl2 solution and liver microsomes was made according to Table 3. The mixture was pre-warmed at 37° C. water bath for 5 minutes.
(§3) 40 μL of 10 mM NADPH solution was added to each well. The final concentration of NADPH was 1 mM. The negative control samples were prepared by replacing NADPH with 40 μL of ultra-pure H2O. Samples were prepared in duplicate. Negative controls were prepared in singlet.
(§4) The reaction was started with the addition of 4 μL of 200 μM exemplary test compounds or control compounds to each master solution to get the final concentration of 2 μM. This study was performed in duplicate.
(§5) Aliquots of 50 μL were taken from the reaction solution at 0, 15, 30, 45 and 60 minutes. The reaction solutions were stopped by the addition of 4 volumes of cold methanol with IS (100 nM alprazolam, 200 nM imipramine, 200 nM labetalol and 2 μM ketoprofen). Samples were centrifuged at 3,220 g for 40 minutes. Aliquot of 90 μL of the supernatant was mixed with 90 μL of ultra-pure H2O and then was used for LC-MS/MS analysis.
(§6) LC/MS analysis was performed for all samples from this study using a Shimadzu liquid chromatograph separation system equipped with degasser DGU-20A5R; solvent delivery unit LC-30AD; system controller SIL-30AC; column oven CTO-30A; CTC Analytics HTC PAL System. Mass spectrometric analysis was performed using an Triple Quad™ 5500 instrument.
(§7) All calculations were carried out using Microsoft Excel. Peak areas were determined from extracted ion chromatograms. The slope value, k, was determined by linear regression of the natural logarithm of the remaining percentage of the parent drug vs. incubation time curve.
(§8) Conversion of the in vitro t1/2 (min) into the in vitro intrinsic clearance (in vitro CLint, in μL/min/mg proteins) was done using the following equation (mean of duplicate determinations): […]

[4] = target: human 5-HT2A (h5-HT2A) receptor (Homo sapiens (Human), UniProt P28223); assay: FLIPR calcium assay, human 5-HT2A receptor, agonist mode; format: cell-based
Description: I. Assessment of the Activated Effect of Exemplary Compounds of Formula I Targeting on Human 5-HT2A (h5-HT2A) Receptor Under Agonist Mode:
1. Culture the cells in cell culture medium (DMEM containing 10% FBS, 1× penicillin-streptomycin 300 μg/ml G418 and 100 μg/ml hygromycin B) at 37° C., 5% (v/v) CO2.
2. One day before the assays, detach the cell using TrypLE™ Express and count cells using cell counter.
3. Seed 20000 cells/well in 30 μl/well culture medium to a 384-well cell plate and incubate the cells overnight at 37° C., 5% (v/v) CO2.
4. On the assay day, prepare 2×dye solution following the manual of the FLIPR® Calcium 6 Assay Kit: i. Dilute the dye with assay buffer(20 mM HEPES in 1× HBSS, PH7.4); ii. Add probenecid to the final concentration of 5 mM; iii. Vortex vigorously for 1-2 minutes.
5. Medium from cell plate by flicking the cell plate on towel papers.
6. Add 10 μl of assay buffer and 10 μl of 2×dye solution to each well of the cell plate.
7. Put the cell plate on plate shaker, agitate the plate at 600 rpm for 2 minutes. Incubate the plate at 37° C. for 2 hours followed by additional 15-minute incubation at 25° C.
8. Prepare 3×compound in assay buffer: a. Dilute reference compounds to required concentration with DMSO. Add the compounds to a 384-well compound plate; b. Perform serial dilutions; c. Add 10 mM test compounds to the compound plate, perform 3-fold serial dilutions. d. […] Add 20 μl/well assay buffer to the compound plate; f. Mix the plate on plate shaker for 2 mins;
i. The normalized fluorescence reading (RFU) is calculated as shown follow, while Fmax and Fmin stand for maximum and minimum of calcium signal during defined time window: RFU=Fmax−Fmin
ii. Calculate the percentage activation by using following equation: […]
iii. Calculate EC50 by fitting % activation against log of compound concentrations with Hill equation using XLfit.

[5] = Rat liver microsomes stability with NADPH
Description: as §1, §2, §3, §4, §5, §6, §7, §8

[6] = Mouse liver microsomes stability with NADPH
Description: as §1, §2, §3, §4, §5, §6, §7, §8

[7] = target: human 5-HT2A receptor (Homo sapiens (Human), UniProt P28223); assay: Radioligand ([3H]-ketanserin) binding assay on human 5-HT2A receptor
Description: i. Prepare the assay buffer following the table below;
ii. Preparation of 8 doses of reference and exemplary test compounds starting from 10 mM stock solution as requested by 5-fold serial dilutions with 100%;
iii. […] a. Add 50 μl/well of 0.5% (v/v) PEI to UniFilter-96 GF/B plates. Seal the plates and incubate at 4° C. for 3 hrs; b. After incubation, wash the plates 3 times with ice-cold wash buffer (50 mM Tris, pH7.4);
iv. Preparation of assay plates: a. Dilute cell membrane with assay buffer and add 330 μl/well to 96 round deep well plates to reach a concentration of 20 μg/well; b. Prepare 8 concentrations of reference or exemplary test compounds and add 110 μl/well to 96 round deep well plates; c. Dilute [3H]-ketanserin with assay buffer to 5 nM (5× final concentration) and add 110 μl/well to 96 round deep well plates.
v. Centrifuge the plate at 1000 rpm for 30 secs and then agitate at 600 rpm, R.T. for 5 min.
vi. Seal the plates and incubate the plate at 27° C. for 90 min.
vii. Stop the incubation by vacuum filtration onto GF/B filter plates followed by 4 times washing with ice-cold wash buffer (50 mM Tris, pH7.4).
ix. Seal the filter plates and add 40 μl/well of scintillation cocktail.
x. Read the plate by using a Microbeta2 microplate counter.
For reference and exemplary test compounds, the results are expressed as % Inhibition, using the normalization equation: N=100−100×(U−C2)/(C1−C2), where U is the unknown value, C1 is the average of high controls, and C2 is the average of low controls. The IC50 is determined by fitting percentage of inhibition as a function of compound concentrations with Hill equation using XLfit.

In the case of `COc1cccc([C@H](O)C2CCN(CCc3ccc(F)cc3)CC2)c1OC` [Compound M100907, reference compound], the “effect of I-2 on HTR after pretreatment with 5-HT2A antagonist M100907” value [1] is reported as “completely blocked”.

In the case of `CN(C)CCc1c[nH]c2cccc(OP(=O)(O)O)c12` [psilocybin, 4-phosphoryloxy-N,N-dimethyltrypatmine], the abstinence rate ([2]; 12 months follow-up) is given as 67% and the abstinence rate ([2]; six months follow-up) is given as 80%.

In the case of `[2H]C([2H])(c1c[nH]c2cccc(O)c12)[C@H]1CCCN1` [Compound I-50, (R)-3-(pyrrolidin-2-ylmethyl-d2)-1H-indol-4-ol], the “Remaining Percentage (%) after 60 min, Human” value ([3]; human liver microsomes, with NADPH, 2 μM) is reported as 69.29%, the half-life at 2 μM ([3]; human, microsomes) is reported as 1.89 h and the microsomal CLint at 2 μM ([3]; human, microsomes) is reported as 12.2 µL/min/mg. The EC50 [4] was under 1 µM, the half-life at 2 μM ([5]; male, rat, microsomes) was 0.662 h and the microsomal CLint at 2 μM ([5]; male, rat, microsomes) was 34.9 µL/min/mg. The “Remaining Percentage (%) after 60 min, Rat” value ([5]; rat liver microsomes, with NADPH, 2 μM) was 34.11%, the half-life at 2 μM ([6]; male, mouse, microsomes) was 1.24 h and the microsomal CLint at 2 μM ([6]; male, mouse, microsomes) was 18.6 µL/min/mg. The “Remaining Percentage (%) after 60 min, Mouse” value ([6]; mouse liver microsomes, with NADPH, 2 μM) was 57.27% and the IC50 [7] was 0.5 to 5 µM.
